“And” between values parts separate entries of the source, which are not always exact repeats. Identical values can stand only once. ± gives the uncertainty stated by the source.
Experiment: xn = mol fraction of the nth substance listed

CS(C)=O + O
Conditions | viscosity
303.15 K, 101 kPa, x1 = 0.01869 | 0.91 ± 0.27 mPa·s
303.15 K, 101 kPa, x1 = 0.0406 | 1.05 ± 0.32 mPa·s
303.15 K, 101 kPa, x1 = 0.05 | 1.176 ± 0.011 mPa·s
303.15 K, 101 kPa, x1 = 0.15 | 2.183 ± 0.021 mPa·s
303.15 K, 101 kPa, x1 = 0.25 | 2.978 ± 0.034 mPa·s
303.15 K, 101 kPa, x1 = 0.35 | 3.26 ± 0.043 mPa·s
303.15 K, 101 kPa, x1 = 0.48 | 2.884 ± 0.045 mPa·s
303.15 K, 101 kPa, x1 = 0.73 | 2.115 ± 0.044 mPa·s
303.15 K, 101.3 kPa, x1 = 0.012 | 0.88 ± 0.023 mPa·s
303.15 K, 101.3 kPa, x2 = 0.1906 | 2.071 ± 0.054 mPa·s
303.15 K, 101.3 kPa, x2 = 0.3252 | 2.348 ± 0.061 mPa·s
303.15 K, 101.3 kPa, x2 = 0.5203 | 2.958 ± 0.077 mPa·s
303.15 K, 101.3 kPa, x2 = 0.6501 | 3.218 ± 0.084 mPa·s
303.15 K, 101.3 kPa, x2 = 0.743 | 2.942 ± 0.077 mPa·s
303.15 K, 101.3 kPa, x2 = 0.8183 | 2.402 ± 0.063 mPa·s
303.15 K, 101.3 kPa, x2 = 0.8668 | 1.941 ± 0.051 mPa·s
303.15 K, 101.3 kPa, x2 = 0.9101 | 1.536 ± 0.04 mPa·s
303.15 K, 101.3 kPa, x2 = 0.9751 | 0.981 ± 0.026 mPa·s
308.15 K, 101 kPa, x1 = 0.05 | 1.065 ± 0.01 mPa·s
308.15 K, 101 kPa, x1 = 0.15 | 1.942 ± 0.02 mPa·s
308.15 K, 101 kPa, x1 = 0.25 | 2.606 ± 0.03 mPa·s
308.15 K, 101 kPa, x1 = 0.35 | 2.84 ± 0.037 mPa·s
308.15 K, 101 kPa, x1 = 0.48 | 2.512 ± 0.039 mPa·s and 2.733 ± 0.081 mPa·s
308.15 K, 101 kPa, x1 = 0.73 | 1.86 ± 0.038 mPa·s
308.15 K, 101.3 kPa, x1 = 0.012 | 0.792 ± 0.021 mPa·s
308.15 K, 101.3 kPa, x2 = 0.1906 | 1.876 ± 0.049 mPa·s
308.15 K, 101.3 kPa, x2 = 0.3252 | 2.109 ± 0.055 mPa·s
308.15 K, 101.3 kPa, x2 = 0.5203 | 2.607 ± 0.068 mPa·s
308.15 K, 101.3 kPa, x2 = 0.6501 | 2.802 ± 0.073 mPa·s
308.15 K, 101.3 kPa, x2 = 0.743 | 2.558 ± 0.067 mPa·s
308.15 K, 101.3 kPa, x2 = 0.8183 | 2.097 ± 0.055 mPa·s
308.15 K, 101.3 kPa, x2 = 0.8668 | 1.708 ± 0.044 mPa·s
308.15 K, 101.3 kPa, x2 = 0.9101 | 1.36 ± 0.035 mPa·s
308.15 K, 101.3 kPa, x2 = 0.9455 | 1.091 ± 0.028 mPa·s
308.15 K, 101.3 kPa, x2 = 0.9751 | 0.879 ± 0.023 mPa·s
313.15 K, 101 kPa, x1 = 0.01 | 0.72 ± 0.02 mPa·s
313.15 K, 101 kPa, x1 = 0.01869 | 0.73 ± 0.22 mPa·s
313.15 K, 101 kPa, x1 = 0.025 | 0.79 ± 0.02 mPa·s
313.15 K, 101 kPa, x1 = 0.039 | 0.87 ± 0.02 mPa·s
313.15 K, 101 kPa, x1 = 0.0406 | 0.85 ± 0.26 mPa·s
313.15 K, 101 kPa, x1 = 0.05 | 0.981 ± 0.008 mPa·s
313.15 K, 101 kPa, x1 = 0.055 | 0.96 ± 0.03 mPa·s
313.15 K, 101 kPa, x1 = 0.071 | 1.07 ± 0.03 mPa·s
313.15 K, 101 kPa, x1 = 0.09 | 1.19 ± 0.03 mPa·s
313.15 K, 101 kPa, x1 = 0.11 | 1.33 ± 0.03 mPa·s
313.15 K, 101 kPa, x1 = 0.13 | 1.5 ± 0.04 mPa·s
313.15 K, 101 kPa, x1 = 0.15 | 1.704 ± 0.019 mPa·s
313.15 K, 101 kPa, x1 = 0.16 | 1.69 ± 0.04 mPa·s
313.15 K, 101 kPa, x1 = 0.19 | 1.89 ± 0.05 mPa·s
313.15 K, 101 kPa, x1 = 0.25 | 2.296 ± 0.029 mPa·s
313.15 K, 101 kPa, x1 = 0.26 | 2.24 ± 0.06 mPa·s
313.15 K, 101 kPa, x1 = 0.3 | 2.39 ± 0.06 mPa·s
313.15 K, 101 kPa, x1 = 0.35 | 2.521 ± 0.036 mPa·s
313.15 K, 101 kPa, x1 = 0.41 | 2.48 ± 0.06 mPa·s
313.15 K, 101 kPa, x1 = 0.48 | 2.22 ± 0.034 mPa·s and 2.34 ± 0.06 mPa·s
313.15 K, 101 kPa, x1 = 0.57 | 2.16 ± 0.06 mPa·s
313.15 K, 101 kPa, x1 = 0.67 | 1.95 ± 0.05 mPa·s
313.15 K, 101 kPa, x1 = 0.73 | 1.72 ± 0.035 mPa·s
313.15 K, 101 kPa, x1 = 0.81 | 1.73 ± 0.04 mPa·s
313.15 K, 101.3 kPa, x1 = 0.012 | 0.718 ± 0.019 mPa·s
313.15 K, 101.3 kPa, x2 = 0.1906 | 1.709 ± 0.045 mPa·s
313.15 K, 101.3 kPa, x2 = 0.3252 | 1.905 ± 0.05 mPa·s
313.15 K, 101.3 kPa, x2 = 0.5203 | 2.313 ± 0.06 mPa·s
313.15 K, 101.3 kPa, x2 = 0.6501 | 2.459 ± 0.064 mPa·s
313.15 K, 101.3 kPa, x2 = 0.743 | 2.24 ± 0.058 mPa·s
313.15 K, 101.3 kPa, x2 = 0.8183 | 1.848 ± 0.048 mPa·s
313.15 K, 101.3 kPa, x2 = 0.8668 | 1.513 ± 0.039 mPa·s
313.15 K, 101.3 kPa, x2 = 0.9101 | 1.214 ± 0.032 mPa·s
313.15 K, 101.3 kPa, x2 = 0.9455 | 0.978 ± 0.025 mPa·s
313.15 K, 101.3 kPa, x2 = 0.9751 | 0.794 ± 0.021 mPa·s
318.15 K, 101 kPa, x1 = 0.055 | 0.847 ± 0.022 mPa·s
318.15 K, 101 kPa, x1 = 0.48 | 2.066 ± 0.079 mPa·s
318.15 K, 101 kPa, x2 = 0.047 | 1.423 ± 0.014 mPa·s
318.15 K, 101 kPa, x2 = 0.089 | 1.457 ± 0.015 mPa·s
318.15 K, 101 kPa, x2 = 0.186 | 1.553 ± 0.018 mPa·s
318.15 K, 101 kPa, x2 = 0.522 | 2.083 ± 0.036 mPa·s
318.15 K, 101 kPa, x2 = 0.59 | 2.164 ± 0.04 mPa·s
318.15 K, 101.3 kPa, x1 = 0.012 | 0.654 ± 0.017 mPa·s
318.15 K, 101.3 kPa, x2 = 0.5203 | 2.065 ± 0.054 mPa·s
318.15 K, 101.3 kPa, x2 = 0.743 | 1.976 ± 0.051 mPa·s
318.15 K, 101.3 kPa, x2 = 0.8183 | 1.637 ± 0.043 mPa·s
318.15 K, 101.3 kPa, x2 = 0.8668 | 1.348 ± 0.035 mPa·s
318.15 K, 101.3 kPa, x2 = 0.9101 | 1.09 ± 0.028 mPa·s
318.15 K, 101.3 kPa, x2 = 0.9455 | 0.884 ± 0.023 mPa·s
318.15 K, 101.3 kPa, x2 = 0.9751 | 0.722 ± 0.019 mPa·s
323.15 K, 101 kPa, x1 = 0.01869 | 0.62 ± 0.19 mPa·s
323.15 K, 101 kPa, x1 = 0.0406 | 0.71 ± 0.21 mPa·s
323.15 K, 101.3 kPa, x1 = 0.012 | 0.6 ± 0.016 mPa·s
323.15 K, 101.3 kPa, x2 = 0.1906 | 1.428 ± 0.037 mPa·s
323.15 K, 101.3 kPa, x2 = 0.3252 | 1.577 ± 0.041 mPa·s
323.15 K, 101.3 kPa, x2 = 0.5203 | 1.853 ± 0.048 mPa·s
323.15 K, 101.3 kPa, x2 = 0.6501 | 1.931 ± 0.05 mPa·s
323.15 K, 101.3 kPa, x2 = 0.743 | 1.754 ± 0.046 mPa·s
323.15 K, 101.3 kPa, x2 = 0.8183 | 1.46 ± 0.038 mPa·s
323.15 K, 101.3 kPa, x2 = 0.8668 | 1.211 ± 0.032 mPa·s
323.15 K, 101.3 kPa, x2 = 0.9101 | 0.985 ± 0.026 mPa·s
323.15 K, 101.3 kPa, x2 = 0.9455 | 0.805 ± 0.021 mPa·s
323.15 K, 101.3 kPa, x2 = 0.9751 | 0.66 ± 0.017 mPa·s
